Results taken from ChEMBL document CHEMBL1151078, “An efficient synthesis of short-chain sphingomyelin analogs and their susceptibility to hydrolysis catalyzed by sphingomyelinase” (1997).

The compounds below were run on Bacillus cereus (assay: Initial velocity (v) of the hydrolysis catalyzed by Bacillus cereus sphingomyelinase was measured).
Assay type: functional
CCCCCCC[C@H](O)[C@H](COP(=O)([O-])OCC[N+](C)(C)C)NC(=O)CCCCC showed a Velocity of 5.08 µM/min/mg.
CCCCC/C=C/[C@@H](O)[C@H](COP(=O)([O-])OCC[N+](C)(C)C)NC(=O)CCCCC gave a Velocity of 136.31 µM/min/mg.
CCCCCCC[C@@H](O)[C@H](COP(=O)([O-])OCC[N+](C)(C)C)NC(=O)CCCCC gave a Velocity of 109.15 µM/min/mg.
CCCCC/C=C/[C@H](O)[C@H](COP(=O)([O-])OCC[N+](C)(C)C)NC(=O)CCCCC showed a Velocity of 11.17 µM/min/mg.
